Experimental data: patent US20100227935A1, “CLASS OF TERPENE-DERIVED COMPOUNDS HAVING AN ANTIBIOTIC ACTIVITY, COMPOSITIONS CONTAINING THE SAME AND USES THEREOF” (Centre National De La Recherche Scientifique, priority 2006, published 2010)
In brackets after ≈: the same amount, converted by molar mass.

Columns and labels:
[1] = test system: Staphylococcus aureus H9; experiment: MIC / antibiotic susceptibility; format: cell-based; note: key: R: strain resistant to antibiotic concerned; S: strain sensitive to antibiotic concerned; L strain with intermediate resistance to antibiotic concerned
[2] = test system: Staphylococcus aureus H4; experiment: MIC / antibiotic susceptibility; format: cell-based; note: key: R: strain resistant to antibiotic concerned; S: strain sensitive to antibiotic concerned; L strain with intermediate resistance to antibiotic concerned
[3] = test system: Staphylococcus aureus H16; format: cell-based; note: key: R: strain resistant to antibiotic concerned; S: strain sensitive to antibiotic concerned; L strain with intermediate resistance to antibiotic concerned
[4] = test system: Staphylococcus aureus H18; experiment: MIC / antibiotic susceptibility; format: cell-based; note: key: R: strain resistant to antibiotic concerned; S: strain sensitive to antibiotic concerned; L strain with intermediate resistance to antibiotic concerned
[5] = test system: Staphylococcus aureus H3; experiment: MIC / antibiotic susceptibility; format: cell-based
[6] = test system: Staphylococcus aureus H7; experiment: MIC / antibiotic susceptibility; format: cell-based
[7] = test system: Staphylococcus aureus H1; experiment: MIC / antibiotic susceptibility; format: cell-based
[8] = test system: C. difficile; conditions: molecules in current use or in clinical trials (phase III); cited from earlier work

Compound	Susceptibility of strain to antibiotic [1]	Susceptibility of strain to antibiotic [2]	Susceptibility of strain to antibiotic [3]	Susceptibility of strain to antibiotic [4]	Susceptibility of strain to antibiotic [5]	Susceptibility of strain to antibiotic [6]	Susceptibility of strain to antibiotic [7]	MIC on C. difficile [8]
NCC[C@H](O)C(=O)N[C@@H]1C[C@H](N)[C@@H](O[C@H]2O[C@H](CN)[C@@H](O)[C@H](O)[C@H]2O)[C@H](O)[C@H]1O[C@H]1O[C@H](CO)[C@@H](O)[C@H](N)[C@H]1O [Amikacin]	S	R	R	R	S	S	S	
CC1(C)S[C@@H]2[C@H](NC(=O)[C@H](N)c3ccc(O)cc3)C(=O)N2[C@H]1C(=O)O [Amoxicillin]	R	R	R	R	R	R	R	
Cc1nnc(SCC2=C(C(=O)O)N3C(=O)[C@@H](NC(=O)Cn4cnnn4)[C@H]3SC2)s1 [Cefazoline]	S	R	R	R	S	S	S	
C[C@H]1c2cccc(O)c2C(O)=C2C(=O)[C@]3(O)C(O)=C(C(N)=O)C(=O)[C@@H](N(C)C)[C@@H]3[C@@H](O)[C@@H]21 [Doxycyclin]	S	S		S	S	S	S	
CC[C@H]1OC(=O)[C@H](C)[C@@H](O[C@H]2C[C@@](C)(OC)[C@@H](O)[C@H](C)O2)[C@H](C)[C@@H](O[C@@H]2O[C@H](C)C[C@H](N(C)C)[C@H]2O)[C@](C)(O)C[C@@H](C)C(=O)[C@H](C)[C@@H](O)[C@]1(C)O [Erythromycin]	R	S	R	R	R	R	S	
C[C@@H]1O[C@@H]1P(=O)(O)O [Fosfomycin]	S	S	R	R	S	S	S	
CC(=O)O[C@H]1C[C@@]2(C)[C@@H](C[C@@H](O)[C@H]3[C@@]4(C)CC[C@@H](O)[C@@H](C)[C@@H]4CC[C@@]32C)/C1=C(\CCC=C(C)C)C(=O)O [Fusidic acid]	R	S	S	S	S	S	S	
CCc1c(Cl)c(O)c(Cl)c(O)c1C(=O)O[C@H]1[C@H](O)[C@H](OC)[C@H](OC/C2=C\C=C\C[C@H](O)/C(C)=C/[C@H](CC)[C@@H](O[C@@H]3OC(C)(C)[C@@H](OC(=O)C(C)C)[C@H](O)[C@@H]3O)/C(C)=C/C(C)=C/C[C@@H]([C@@H](C)O)OC2=O)O[C@@H]1C [Lipiarmycin]								0.06 to 2 mg/L
CC(=O)Oc1ccccc1C(=O)Nc1ncc([N+](=O)[O-])s1 [Nitazoxanide]								0.1 mg/L (≈ 0.325 µM)
CCn1cc(C(=O)O)c(=O)c2cc(F)c(N3CCNCC3)cc21 [Norfloxacin]	S	R	R	R	R	R	S	
CC1COc2c(N3CCN(C)CC3)c(F)cc3c(=O)c(C(=O)O)cn1c23 (stereo not drawn) [Ofloxacin]	S	R	R	R	R	R	S	
Cc1onc(-c2ccccc2)c1C(=O)N[C@@H]1C(=O)N2[C@@H]1SC(C)(C)[C@@H]2C(=O)O [Oxacillin]	S	R	R	R	S	S	S	
CC1(C)S[C@@H]2[C@H](NC(=O)Cc3ccccc3)C(=O)N2[C@H]1C(=O)O [Penicillin G]	R	R	R	R	R	R	R	
CCN1CCN(C(=O)N[C@@H](C(=O)N[C@@H]2C(=O)N3[C@@H]2SC(C)(C)[C@@H]3C(=O)O)c2ccccc2)C(=O)C1=O [Piperacillin]	R	R	R	R	R	R	R	
CO[C@H]1/C=C/O[C@@]2(C)Oc3c(C)c(O)c4c(O)c(c(/C=N/N5CCN(C)CC5)c(O)c4c3C2=O)NC(=O)/C(C)=C\C=C\[C@H](C)[C@H](O)[C@@H](C)[C@@H](O)[C@@H](C)[C@H](OC(C)=O)[C@@H]1C [Rifampicin]	S	S	R	S	S	S	S	
CN(C)[C@@H]1C(O)=C(C(N)=O)C(=O)[C@@]2(O)C(O)=C3C(=O)c4c(O)cccc4[C@@](C)(O)[C@H]3C[C@@H]12 [Tetracycline]		S	R		S		S	
NC[C@H]1O[C@H](O[C@H]2[C@H](O)[C@@H](O[C@H]3O[C@H](CO)[C@@H](O)[C@H](N)[C@H]3O)[C@H](N)C[C@@H]2N)[C@H](N)C[C@@H]1O [Tobramycin]	S	R	R	R	S	S	S	
Co-trimoxazole	S	S	S	S	S	S	S	
Gentamicin	S	S	R	S	S	S	S	
Pristinamycin	S	S		S	S	S	S	
Teicoplanin	S	S		R	S	S	S	
